# From ChEMBL document CHEMBL1201862, “PubChem BioAssay data set” (2004)
#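 Exposure lasted 48 hours, with cells grown in 96-well plates and compounds tested at five concentrations. GI50: concentration for 50% inhibition of growth.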 Calls of active or inactive are those of the source. No stated cut-off is given here; in the data, active = GI50 up to about 1.1 µM and inactive = higher.
# Experiments:
# Assay in all cases: NCI tumour cell line growth inhibition, 48 h
# 786-0 = system: 786-0
# CCRF-CEM = system: CCRF-CEM
# DLD-1 = system: DLD-1
# SN12C = system: SN12C
# SK-MEL-2 = system: SK-MEL-2
# OVCAR-5 = system: OVCAR-5
# SK-MEL-5 = system: SK-MEL-5
# SF-295 = system: SF-295
# HL-60 = system: HL-60
# SNB-75 = system: SNB-75
# OVCAR-8 = system: OVCAR-8
# NCI-H460 = system: NCI-H460
# HT-29 = system: HT-29
# HOP-18 = system: HOP-18
# SK-MEL-28 = system: SK-MEL-28
# RPMI-8226 = system: RPMI-8226
# SNB-19 = system: SNB-19
# HCT-116 = system: HCT-116
# XF498 = system: XF498
# UACC-62 = system: UACC-62
# UACC-257 = system: UACC-257
# OVCAR-3 = system: OVCAR-3
# MOLT-4 = system: MOLT-4
# ACHN = system: ACHN
# RXF 393 = system: RXF 393
# HCT-15 = system: HCT-15
# UO-31 = system: UO-31
# NCI-H23 = system: NCI-H23
# SF-268 = system: SF-268
# OVCAR-4 = system: OVCAR-4
# SR = system: SR
# Malme-3M = system: Malme-3M
# DMS-273 = system: DMS-273
# M19-MEL = system: M19-MEL
# LXFL 529 = system: LXFL 529
# COLO 205 = system: COLO 205
# TK-10 = system: TK-10
# SF-539 = system: SF-539
# HOP-92 = system: HOP-92
# KM-20L2 = system: KM-20L2
# HOP-62 = system: HOP-62
# NCI-H522 = system: NCI-H522
# SW-620 = system: SW-620
# IGROV-1 = system: IGROV-1
# LOX IMVI = system: LOX IMVI
# HCC 2998 = system: HCC 2998
# U-251 = system: U-251
# K562 = system: K562
# M14 = system: M14
# SNB-78 = system: SNB-78
# NCI-H226 = system: NCI-H226
# A549 = system: A549
# EKVX = system: EKVX
# A498 = system: A498
# SK-OV-3 = system: SK-OV-3
# DMS-114 = system: DMS-114
# KM12 = system: KM12
# CAKI-1 = system: CAKI-1
smiles,measurement,setting,value
Cc1ccc(NC(=O)C2C3C=CC(O3)C2C(=O)O)cc1 (centres undefined),GI50,786-0,53.3 µM (inactive)
same,GI50,CCRF-CEM,83.9 µM (inactive)
same,GI50,DLD-1,> 100 µM (inactive)
same,GI50,SN12C,> 100 µM (inactive)
same,GI50,SK-MEL-2,> 100 µM (inactive)
same,GI50,OVCAR-5,> 100 µM (inactive)
same,GI50,SK-MEL-5,> 100 µM (inactive)
same,GI50,SF-295,> 100 µM (inactive)
same,GI50,HL-60,61.5 µM (inactive)
same,GI50,SNB-75,> 100 µM (inactive)
same,GI50,OVCAR-8,> 100 µM (inactive)
same,GI50,NCI-H460,> 100 µM (inactive)
same,GI50,HT-29,19.8 µM (inactive)
same,GI50,HOP-18,> 100 µM (inactive)
same,GI50,SK-MEL-28,> 100 µM (inactive)
same,GI50,RPMI-8226,24.3 µM (inactive)
same,GI50,SNB-19,> 100 µM (inactive)
same,GI50,HCT-116,> 100 µM (inactive)
same,GI50,XF498,71.9 µM (inactive)
same,GI50,UACC-62,> 100 µM (inactive)
same,GI50,UACC-257,87.1 µM (inactive)
same,GI50,OVCAR-3,> 100 µM (inactive)
same,GI50,MOLT-4,> 100 µM (inactive)
same,GI50,ACHN,> 100 µM (inactive)
same,GI50,RXF 393,23.6 µM (inactive)
same,GI50,HCT-15,> 100 µM
same,GI50,UO-31,> 100 µM (inactive)
same,GI50,NCI-H23,> 100 µM (inactive)
same,GI50,SF-268,> 100 µM (inactive)
same,GI50,OVCAR-4,> 100 µM (inactive)
same,GI50,SR,> 100 µM (inactive)
same,GI50,Malme-3M,> 100 µM (inactive)
same,GI50,DMS-273,> 100 µM (inactive)
same,GI50,M19-MEL,> 100 µM (inactive)
same,GI50,LXFL 529,> 100 µM (inactive)
same,GI50,COLO 205,45 µM (inactive)
same,GI50,TK-10,> 100 µM (inactive)
same,GI50,SF-539,> 100 µM (inactive)
same,GI50,HOP-92,> 100 µM (inactive)
same,GI50,KM-20L2,> 100 µM (inactive)
same,GI50,HOP-62,> 100 µM (inactive)
same,GI50,NCI-H522,> 100 µM (inactive)
same,GI50,SW-620,8.83 µM (inactive)
same,GI50,IGROV-1,> 100 µM (inactive)
same,GI50,LOX IMVI,23.7 µM (inactive)
same,GI50,HCC 2998,> 100 µM (inactive)
same,GI50,U-251,> 100 µM (inactive)
same,GI50,K562,> 100 µM (inactive)
same,GI50,M14,> 100 µM (inactive)
same,GI50,SNB-78,> 100 µM (inactive)
same,GI50,NCI-H226,> 100 µM (inactive)
same,GI50,A549,> 100 µM (inactive)
same,GI50,EKVX,> 100 µM (inactive)
same,GI50,A498,> 100 µM (inactive)
same,GI50,SK-OV-3,> 100 µM (inactive)
same,GI50,DMS-114,66.8 µM (inactive)
O=c1[nH]cnc(NC2C=C(CO)C(O)C2O)c1[N+](=O)[O-] (centres undefined),GI50,786-0,> 46.2 µM (inactive)
same,GI50,CCRF-CEM,> 71.1 µM (inactive)
same,GI50,DLD-1,> 58.6 µM (inactive)
same,GI50,SN12C,> 100 µM (inactive)
same,GI50,SK-MEL-2,> 100 µM (inactive)
same,GI50,OVCAR-5,> 100 µM (inactive)
same,GI50,SK-MEL-5,> 100 µM (inactive)
same,GI50,SF-295,> 100 µM (inactive)
same,GI50,HL-60,> 37.2 µM (inactive)
same,GI50,SNB-75,> 100 µM (inactive)
same,GI50,OVCAR-8,> 100 µM (inactive)
same,GI50,NCI-H460,> 40.1 µM (inactive)
same,GI50,HT-29,> 100 µM (inactive)
same,GI50,HOP-18,> 100 µM (inactive)
same,GI50,SK-MEL-28,> 100 µM (inactive)
same,GI50,RPMI-8226,> 45.9 µM (inactive)
same,GI50,SNB-19,> 100 µM (inactive)
same,GI50,HCT-116,> 37.7 µM (inactive)
same,GI50,XF498,> 100 µM (inactive)
same,GI50,UACC-62,> 100 µM (inactive)
same,GI50,UACC-257,> 100 µM (inactive)
same,GI50,OVCAR-3,> 100 µM (inactive)
same,GI50,MOLT-4,> 100 µM (inactive)
same,GI50,ACHN,> 100 µM (inactive)
same,GI50,RXF 393,> 100 µM (inactive)
same,GI50,HCT-15,> 40.3 µM
same,GI50,UO-31,> 100 µM (inactive)
same,GI50,NCI-H23,> 100 µM (inactive)
same,GI50,SF-268,> 100 µM (inactive)
same,GI50,OVCAR-4,> 100 µM (inactive)
same,GI50,KM12,> 100 µM (inactive)
same,GI50,SR,> 100 µM (inactive)
same,GI50,Malme-3M,> 100 µM (inactive)
same,GI50,DMS-273,> 47.2 µM (inactive)
same,GI50,M19-MEL,> 76.6 µM (inactive)
same,GI50,LXFL 529,> 100 µM (inactive)
same,GI50,COLO 205,> 62.7 µM (inactive)
same,GI50,TK-10,> 100 µM (inactive)
same,GI50,SF-539,> 100 µM (inactive)
same,GI50,HOP-92,> 100 µM (inactive)
same,GI50,KM-20L2,> 100 µM (inactive)
same,GI50,HOP-62,> 100 µM (inactive)
same,GI50,NCI-H522,> 100 µM (inactive)
same,GI50,SW-620,> 43.2 µM (inactive)
same,GI50,IGROV-1,> 100 µM (inactive)
same,GI50,LOX IMVI,> 41.2 µM (inactive)
same,GI50,HCC 2998,> 100 µM (inactive)
same,GI50,U-251,> 63.5 µM (inactive)
same,GI50,K562,> 100 µM (inactive)
same,GI50,M14,> 100 µM (inactive)
same,GI50,SNB-78,> 100 µM (inactive)
same,GI50,NCI-H226,> 100 µM (inactive)
same,GI50,A549,> 83.2 µM (inactive)
same,GI50,CAKI-1,> 100 µM (inactive)
same,GI50,EKVX,> 100 µM (inactive)
same,GI50,A498,> 100 µM (inactive)
same,GI50,SK-OV-3,> 100 µM (inactive)
same,GI50,DMS-114,> 51.3 µM (inactive)
